Measurements published in patent US7829665B2 (priority 2005, dated 2010).

Tests used:
[1] = test system: HCV sub-genomic replicon in GS4.3 cells (HuH-7 hepatoma cells); assay: Quantitation by ELISA of Neomycin phosphotransferase II (NPTII) in the HCV sub-genomic replicon, GS4.3; assay type: cell-based, hepatitis C virus; details: Hepatitis C virus, Huh-7; GS4.3 cells, 72 h incubation, NPTII ELISA; read-out: Replicon EC50
Protocol: The HCV sub-genomic replicon (1377/NS3-3′, accession No. AJ242652), stably maintained in HuH-7 hepatoma cells, was created by Lohmann et al. Science 285: 110-113 (1999). The replicon-containing cell culture, designated GS4.3, was obtained from Dr. Christoph Seeger of the Institute for Cancer Research, Fox Chase Cancer Center, Philadelphia, Pa.
GS4.3 cells were maintained at 37° C., 5% CO2, in DMEM (Gibco 11965-092) supplemented with L-glutamine 200 mM (100×) (Gibco25030-081), non-essential amino acids (NEAA) (Biowhittaker 13-114E), heat-inactivated (HI) Fetal Bovine Serum (FBS) (Hyclone SH3007.03) and 750 μg/ml geneticin (G418) (Gibco 10131-035). Cells were sub-divided 1:3 or 4 every 2-3 days.
24 h prior to the assay, GS4.3 cells were collected, counted, and plated in 96-well plates (Costar 3585) at 7500 cells/well in 100 μl standard maintenance medium (above) and incubated in the conditions above. To initiate the assay, culture medium was removed, cells were washed once with PBS (Gibco 10010-023) and 90 μl Assay Medium (DMEM, L-glutamine, NEAA, 10% HI FBS, no G418) was added. Inhibitors were made as a 10× stock in Assay Medium, (3-fold dilutions from 10 μM to 56 pM final concentration, final DMSO concentration 1%), 10 μl were added to duplicate wells, plates were rocked to mix, and incubated as above for 72 h.
An NPTII Elisa kit was obtained from AGDIA, Inc. (Compound direct ELISA test system for Neomycin Phosphotransferase II, PSP 73000/4800). Manufacturer's instructions were followed, with some modifications. 10×PEB-1 lysis buffer was made up to include 500 μM PMSF (Sigma P7626, 50 mM stock in isopropanol). After 72 h incubation, cells were washed once with PBS and 150 μl PEB-1 with PMSF was added per well. Plates were agitated vigorously for 15 minutes, room temperature, then frozen at −70° C. Plates were thawed, lysates were mixed thoroughly, and 100 μl were applied to an NPTII Elisa plate. A standard curve was made. Lysate from DMSO-treated control cells was pooled, serially diluted with PEB-1 with PMSF, and applied to duplicate wells of the ELISA plate, in a range of initial lysate amount of 150 ul-2.5 ul. In addition, 100 μl buffer alone was applied in duplicate as a blank. Plates were sealed and gently agitated at room temperature for 2 h. Following capture incubation, the plates were washed 5×300 μl with PBS-T (0.5% Tween-20, PBS-T was supplied in the ELISA kit). For detection, a 1× dilution of enzyme conjugate diluent MRS-2 (5×) was made in PBS-T, into which 1:100 dilutions of enzyme conjugates A and B were added, as per instructions. Plates were resealed, and incubated with agitation, covered, room temperature, for 2 h. The washing was then repeated and 100 μl of room temperature TMB substrate was added. After approximately 30 minutes incubation (room temperature, agitation, covered), the reaction was stopped with 50 μl 3M sulfuric acid. Plates were read at 450 nm on a Molecular Devices Versamax plate reader.
Inhibitor effect was expressed as a percentage of DMSO-treated control signal, and inhibition curves were calculated using a 4-parameter equation: y=A+((B−A)/(1+((C/x)^D))), where C is half-maximal activity or EC50.

[2] = target: T1, full-length NS3/NS4A-2 (HCV NS3 protease) (Hepatitis C virus genotype 1a, UniProt P27958); assay: NS3-NS4 protease assay / NS3 inhibition assay (RETS1 substrate, fluorescence kinetic read); assay type: biochemical; details: recombinant E. coli or Baculovirus full-length NS3 with NS4A-2; read-out: NS3-NS4 IC50
T1 construct: Recombinant E. coli or Baculovirus full-length NS3 was diluted to 3.33 μM with assay buffer; made in house; host or cells: E. coli or baculovirus (BV) expression system
T1 sequence (P27958 1027-1657): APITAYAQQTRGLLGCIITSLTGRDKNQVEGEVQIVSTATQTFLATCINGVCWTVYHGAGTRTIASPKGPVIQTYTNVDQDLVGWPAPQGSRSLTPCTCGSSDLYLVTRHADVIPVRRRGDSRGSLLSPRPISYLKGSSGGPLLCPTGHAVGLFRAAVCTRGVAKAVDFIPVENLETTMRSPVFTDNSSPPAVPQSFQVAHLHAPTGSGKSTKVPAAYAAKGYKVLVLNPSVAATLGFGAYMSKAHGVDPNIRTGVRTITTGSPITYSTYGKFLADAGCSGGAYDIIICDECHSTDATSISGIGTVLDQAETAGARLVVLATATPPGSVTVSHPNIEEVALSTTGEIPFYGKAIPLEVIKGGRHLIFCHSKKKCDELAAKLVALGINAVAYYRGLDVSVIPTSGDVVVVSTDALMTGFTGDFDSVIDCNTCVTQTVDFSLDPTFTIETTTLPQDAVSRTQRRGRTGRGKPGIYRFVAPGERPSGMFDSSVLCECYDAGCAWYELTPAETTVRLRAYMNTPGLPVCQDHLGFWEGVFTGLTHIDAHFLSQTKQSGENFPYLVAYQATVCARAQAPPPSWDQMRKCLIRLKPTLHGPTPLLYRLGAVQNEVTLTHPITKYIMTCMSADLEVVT
Procedure, shortened: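 Ki values come from IC50 fits corrected via Ki=IC50/(1+[S]/Km), with Km 2.03 μM for E. coli and 1.74 μM for baculovirus full-length NS3. Enzyme (2 or 3 nM NS3, respectively, complexed with NS4A-2) sat with compound, top concentration 50 microM, for 10 min at room temperature. Cleavage of RETS1 (8 μM working solution) was then followed by fluorescence (335/495 nm) over 30 min.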

Structure (SMILES) | EC50 [1] [nM] | IC50 [2] [nM]
CC(C)(C)OCC(=O)N[C@H]1CCCCC/C=C\[C@@H]2C[C@@]2(C(=O)NS(=O)(=O)C2CC2)NC(=O)[C@@H]2C[C@@H](OC(=O)N3Cc4cccc(Cl)c4C3)CN2C1=O [Compound 266] | < 100 | < 100
O=C1N[C@]2(C(=O)NS(=O)(=O)C3CC3)C[C@H]2/C=C\CCCCC[C@H](NC(=O)N2CCCC2)C(=O)N2C[C@H](OC(=O)N3Cc4cccc(F)c4C3)C[C@@H]12 [Compound 243] | < 100 | < 100
Cc1cccc(C)c1CN[C@H]1CCCCC/C=C\[C@@H]2C[C@@]2(C(=O)NS(=O)(=O)C2CC2)NC(=O)[C@@H]2C[C@@H](OC(=O)N3Cc4cccc(F)c4C3)CN2C1=O [Compound 918] | < 1000 | < 100
CC(C)(C)OC(=O)N[C@H]1CCCCC/C=C\[C@@H]2C[C@@]2(C(=O)NC2CC2)NC(=O)[C@@H]2C[C@@H](OC(=O)N3Cc4cccc(F)c4C3)CN2C1=O [Compound 609] | < 1000 | < 100
O=C(N[C@H]1CCCCC/C=C\[C@@H]2C[C@@]2(C(=O)NS(=O)(=O)Nc2ccc(Cl)cc2)NC(=O)[C@@H]2C[C@@H](OC(=O)N3Cc4cccc(F)c4C3)CN2C1=O)OC1CCCC1 [Compound 219] | < 10000 | < 100
O=C(N[C@H]1CCCCC/C=C\[C@@H]2C[C@@]2(C(=O)NS(=O)(=O)NCC2CC2)NC(=O)[C@@H]2C[C@@H](OC(=O)N3Cc4cccc(F)c4C3)CN2C1=O)OC1CCCC1 [Compound 205] | < 1000 | < 100
O=C1N[C@]2(C(=O)NS(=O)(=O)C3CC3)C[C@H]2/C=C\CCCCC[C@H](NCc2ccc(Cl)o2)C(=O)N2C[C@H](OC(=O)N3Cc4cccc(F)c4C3)C[C@@H]12 [Compound 914] | < 100 | < 100
CNc1c(NC(=O)[C@@]23C[C@H]2/C=C\CCCCC[C@H](NC(=O)OC(C)(C)C)C(=O)N2C[C@H](OC(=O)N4Cc5cccc(F)c5C4)C[C@H]2C(=O)N3)c(=O)c1=O [Compound 646] | > 10000 | < 1000
CC(C)N(C)S(=O)(=O)NC(=O)[C@@]12C[C@H]1/C=C\CCCCC[C@H](NC(=O)OC(C)(C)C)C(=O)N1C[C@H](OC(=O)N3Cc4ccccc4C3)C[C@H]1C(=O)N2 [Compound 201] | < 100 | < 100
CC(C)(C)OC(=O)N[C@H]1CCCCC/C=C\[C@@H]2C[C@@]2(C(=O)NS(=O)(=O)C(C)(C)C)NC(=O)[C@@H]2C[C@@H](OC(=O)N3Cc4ccccc4C3)CN2C1=O [Compound 102] | < 1000 | < 100
CCN(C)S(=O)(=O)NC(=O)[C@@]12C[C@H]1/C=C\CCCCC[C@H](NC(=O)OC(C)(C)C)C(=O)N1C[C@H](OC(=O)N3Cc4ccccc4C3)C[C@H]1C(=O)N2 [Compound 200] | < 100 | < 100
CN(C)C(=S)NC(=O)[C@@]12C[C@H]1/C=C\CCCCC[C@H](NC(=O)OC(C)(C)C)C(=O)N1C[C@H](OC(=O)N3Cc4cccc(F)c4C3)C[C@H]1C(=O)N2 [Compound 236] | < 100 | < 100
C[C@H](NC(=O)[C@@]12C[C@H]1/C=C\CCCCC[C@H](NC(=O)OC(C)(C)C)C(=O)N1C[C@H](OC(=O)N3Cc4cccc(F)c4C3)C[C@H]1C(=O)N2)c1ccc(F)cn1 [Compound 628] | < 1000 | < 1000
CC(C)(C)OC(=O)N[C@H]1CCC(F)(F)CC/C=C\[C@@H]2C[C@@]2(C(=O)NS(=O)(=O)C2CC2)NC(=O)[C@@H]2C[C@@H](OC(=O)N3CCc4ccccc4C3)CN2C1=O [Compound 1014] | < 100 | < 100
CC(C)(C)OC(=O)N[C@H]1CCCCC/C=C\[C@@H]2C[C@@]2(C(=O)O)NC(=O)[C@@H]2C[C@@H](OC(=O)N3Cc4ccc(F)cc4C3)CN2C1=O [Compound 109] | < 10000 | < 100
CC(C)(C)OC(=O)N[C@H]1CCCCC/C=C\[C@@H]2C[C@@]2(C(=O)Nc2n[nH]c(C3CC3)n2)NC(=O)[C@@H]2C[C@@H](OC(=O)N3Cc4cccc(F)c4C3)CN2C1=O [Compound 635] | < 1000 | < 100
N[C@H]1CCC(F)(F)CC/C=C\[C@@H]2C[C@@]2(C(=O)NS(=O)(=O)C2CC2)NC(=O)[C@@H]2C[C@@H](OC(=O)N3Cc4ccccc4C3)CN2C1=O [Compound 1011] | < 1000 | < 100
O=C1N[C@]2(C(=O)NCC3CC3)C[C@H]2/C=C\CCCCC[C@H](NCc2ccc(F)c(F)c2)C(=O)N2C[C@H](OC(=O)N3Cc4cccc(F)c4C3)C[C@@H]12 [Compound 626] | < 10000 | < 1000
CC(C)(C)OC(=O)N[C@H]1CCNCC/C=C\[C@@H]2C[C@@]2(C(=O)NS(=O)(=O)C2CC2)NC(=O)[C@@H]2C[C@@H](OC(=O)N3Cc4cccc(F)c4C3)CN2C1=O [Compound 1031] | < 1000 | < 100
CC(C)Nc1c(N[C@H]2CCCCC/C=C\[C@@H]3C[C@@]3(C(=O)NS(=O)(=O)C3CC3)NC(=O)[C@@H]3C[C@@H](OC(=O)N4Cc5cccc(F)c5C4)CN3C2=O)c(=O)c1=O [Compound 184] | < 10000 | < 100
CN1CCN(c2ccc3c(c2)CN(C(=O)O[C@@H]2C[C@H]4C(=O)N[C@]5(C(=O)O)C[C@H]5/C=C\CCCCC[C@H](NC(=O)OC(C)(C)C)C(=O)N4C2)C3)CC1 [Compound 175] | > 10000 | < 100
CC(C)(C)OC(=O)N[C@H]1CCCCC/C=C\[C@@H]2C[C@@]2(C(=O)NC#N)NC(=O)C2C[C@@H](OC(=O)N3Cc4cccc(Cl)c4C3)CN2C1=O (stereo partly drawn) [Compound 641] | < 10000 | < 100
CN(C)c1c(N[C@H]2CCCCC/C=C\[C@@H]3C[C@@]3(C(=O)NS(=O)(=O)C3CC3)NC(=O)[C@@H]3C[C@@H](OC(=O)N4Cc5cccc(F)c5C4)CN3C2=O)c(=O)c1=O [Compound 185] | < 10000 | < 100
CCOC1(S(=O)(=O)NC(=O)[C@@]23C[C@H]2/C=C\CCCCC[C@H](NC(=O)OC(C)(C)C)C(=O)N2C[C@H](OC(=O)N4Cc5cccc(Cl)c5C4)C[C@H]2C(=O)N3)CC1 [Compound 165] | < 100 | < 100
O=C(N[C@H]1CCCCC/C=C\[C@@H]2C[C@@]2(C(=O)O)NC(=O)[C@@H]2C[C@@H](OC(=O)N3Cc4cccc(F)c4C3)CN2C1=O)OC1CCCC1 [Compound 116] | < 10000 | < 100
CC(C)(C)OC(=O)N[C@H]1CCCCC/C=C\[C@@H]2C[C@@]2(C(=O)NCCF)NC(=O)[C@@H]2C[C@@H](OC(=O)N3Cc4cccc(F)c4C3)CN2C1=O [Compound 611] | < 10000 | < 1000
Cc1ccc(CN[C@H]2CCCCC/C=C\[C@@H]3C[C@@]3(C(=O)NS(=O)(=O)C3CC3)NC(=O)[C@@H]3C[C@@H](OC(=O)N4Cc5cccc(F)c5C4)CN3C2=O)o1 [Compound 909] | < 100 | < 100
